# Literature values, collected in US11913924B2, “Ion generation using modified wetted porous materials” (Purdue Research Foundation, priority 2011, dated 2024).
# Like-named read-outs stand apart in the source and are kept apart here.
# What was measured:
# [1] = in vivo
# [2] = therapeutic windows listed in Table 6
SMILES,Therapeutic range [2],other results
"O=P1(N(CCCl)CCCl)NCCCO1 (stereo not shown) [Cyclophosphamide, cyclophosphamide]",,"Therapeutic range (plasma concentrations, Regenthal et al., J. Clin. Monitor Comp. 1999): 10000 to 25000 ng/mL"
CN(C)CCC=C1c2ccccc2CCc2ccccc21 [amitriptyline],50 to 200 ng/mL,
CN(C)CCCC1(c2ccc(F)cc2)OCc2cc(C#N)ccc21 (stereo not shown) [citalopram],10 to 200 ng/mL,
CN1C(=O)CC[C@H]1c1cccnc1 [cotinine],,half-life [1]: about 16 hours
CCN(CC)CC(=O)Nc1c(C)cccc1C [lidocaine],"1,000-6,000 ng mL^−1",
CN1CCCC1c1cccnc1 (stereo not shown) [nicotine],,half-life [1]: about 2 hours
CCN(CC)CCNC(=O)c1c(C)[nH]c(/C=C2\C(=O)Nc3ccc(F)cc32)c1C [sunitinib],20 to 200 ng/mL,
